Laboratory results published in US5608084A, “Lactones with antioxidising and hypolipidaemic activity useful in the therapy of the atherosclerosis” (priority 1994, dated 1997).
Like-named read-outs stand apart in the source and are kept apart here.

Legend:
[1] = test system: Watanabe rabbits, suffering from familial hypercholesterolaemia; details: cited from earlier work
HepG2 = assay: Incorporation of 14C-acetate in the lipidic classes in HepG2 cells (hypolipidaemic activity); type: cell-based, human; details: for Incorporation of 14C-acetate: Cholesterol / Incorporation of 14C-acetate: Esters of Cholesterol / Incorporation of 14C-acetate: Fatty acids / Incorporation of 14C-acetate: Phospholipids / Incorporation of 14C-acetate: Triglycerides: per culture plate; for inhibition at 1 µM / inhibition at 10 µM: Homo sapiens, HepG2
Protocol: The hypolipidaemic activity of some lactones of general formula I has been evaluated in vitro by testing their influence on the synthesis of the cell lipids like cholesterol, fatty acids, triglycerides, phospholipids and esters of the cholesterol, described by Barnhard J. W. in Amer. J. Cardiol., 62, 52B-56B, (1988).
The synthesis of the lipids has been studied by incubating cells coming from a human hepatocarcinoma (HepG2-American Type Culture Collection) in presence of ^14 C-acetate (Amersham) and by measuring the incorporation of the radioactive precursor in the main lipidic classes by means of chromatographic separation on silica gel (Merck F254), according to the method described by Skipski V. P. et al. in Biochem. Biophys. Acta, 106, 386-396, (1965) and by means of scintillographic dosage with β-counter Beckman scintillator, according to the method reported by Gherardi E. and Calandra S. in Lipids, 15, 108-112, (1980).
The data reported in tables 4 and 5 refer to the incorporation of ^14 C-acetate in the various lipidic classes, expressed as radioactivity in count per minute (cpm) for culture plate, for some lactones, in comparison with the probucol and the gemfibrozil, used as positive controls and with the solvent ethanol, used as negative control.
The percents in brackets express the lowering of the ^14 C-acetate in the various lipidic classes referred to the control, i.e. to the physiological solution. […] The confluence cells have been exposed to the products tested for 24 hours; at the end of the incubation the monolayer has been solubilized and the optical density of the lysate at λ260 nm has been measured. The value of the absorbance is direct function of the amount of the macromolecules present and therefore indirectly of the number of the cells.

B-100 apolipoprotein = assay: Fragmentation of B-100 apolipoprotein on SDS-PAGE (oxidative modification of LDL); type: biochemical, human; details: 10 μM
Text: The determination of the melting point has been carried out by means of a capillary melting point apparatus Electrothermal, without any correction. The I.R. spectrum has been obtained by means of a Perkin-Elmer rood. 963/G spectrophotometer generally, when not otherwise specified, preparing the specimen in potassium bromide and recording the spectrum between 4000 and 600 nm. […] The mass spectrum has been recorded by using a VG 7070E mass spectrometer, at a 70 eV ionization voltage and with a 6 Kvolt acceleration voltage. […] Chem., 43, 2923, (1978). […] The antioxidant activity has been evaluated through the capability of some lactones of formula I to prevent and/or delay the oxidative modification of the lipoproteins (LDL), caused by a chemical method by incubating native LDL with cupric ions, according to the method described by Steinbrecher U. P. in J. Biol. Chem., 262, 3603-3608, (1987). The evaluation of the oxidation degree of the LDL through the monitoring of the concentration of aldehydes derived from the degradation of the lipidic peroxides and the observation of the modifications of the B-100 apolipoprotein represent the used experimental approach. The antioxidant activity of the lactones has been expressed in terms of duration of the latency period that represents a parameter of the resistance to the oxidation of the LDL. The LDL have been isolated from the human plasma obtained from blood collected, in the presence of EDTA, from healty volunteers fasting from 8 hours according to the method described by Havel H. in J. Clin. Invest., 34, 1345-1353, (1955). The solution, dialyzed in Visking-Serva dialysis tubes at 4° C. for 72 hours in phosphate buffer (PBS) added with EDTA (0.24 mM), has been filtered through a membrane with 0.45μ porosity (Millex HV Filters) and the proteic concentration has been determined according to the method described by Lowry O. et al. in J. Biol. Chem., 193, 265-275, (1951). The solution has been diluted with PBS-EDTA at a concentration of 500 μg protein/ml and the obtained LDL have been incubated at 42° C. for 45 minutes in presence of the lactones solubilized in ethanol (1.7 μl/ml LDL). At the end of the incubation the solutions have been placed on ice for 45 minutes and dialyzed at 4° C. for 36 hours in PBS. The oxidation of the LDL has been carried out with 5 μM cupric sulfate at 37° C. and stopped at the experimental times by cooling at 4° C. and adding 0.24 mM of EDTA. The solutions of LDL have been kept at 4° C. and sheltered from light during the experimental procedure. […] 52, (1978).
The inhibition of the oxidative process has been evaluated also by means of the study of the fragmentation of the B-100 apolipoprotein through the electrophoretic analysis on polyacrylamide gel in presence of sodium dodecylsulfate (SDS-PAGE), according to the method described by Laemmli U. K., in Nature, 227, 680, (1970). The quantitative evaluation of the disappearance of the B-100 apolipoprotein has been carried out by densitometric unidimensional measurement of the absorbance at λ=633nm, on an electrophoretic plate 13.5 cm long, after colouring with Coomassie Brillant Blue. The reagents used for the preparation and coloration of the gels, the reference standard (SDS-PAGE standards Broad Range--Cat. no. 161-0317), the gradient former (gradient former Bio-Rad Mod. 385) and the electrophoretic cell (Protean II) are Bio-Rad products; the feeder is a LKB Pharmacia Mod. 2197, the densitometer is a Pharmacia LKB Mod. 2222-020 Ultrascan XL with integrators LKB 2220 and LKB 2190 GelScan Software Package.

LDL = details: in vitro, LDL incubated with antioxidizer; cited from earlier work

## CC(C)(Sc1cc(C(C)(C)C)c(O)c(C(C)(C)C)c1)Sc1cc(C(C)(C)C)c(O)c(C(C)(C)C)c1 [Probucol, reference compound]
[1]
  LDL plasma levels: does not substantially modify the LDL plasma levels
  atheromatous lesions: lowers the atheromatous lesions
HepG2; 1 μM
  Incorporation of 14C-acetate: Cholesterol: 14360 cpm
  Incorporation of 14C-acetate: Esters of Cholesterol: 1887 cpm
  Incorporation of 14C-acetate: Fatty acids: 429 cpm
  Incorporation of 14C-acetate: Phospholipids: 173426 cpm
  Incorporation of 14C-acetate: Triglycerides: 100202 cpm
HepG2; 10 μM
  Incorporation of 14C-acetate: Cholesterol: 11389 cpm
  Incorporation of 14C-acetate: Esters of Cholesterol: 2635 cpm
  Incorporation of 14C-acetate: Fatty acids: 394 cpm
  Incorporation of 14C-acetate: Phospholipids: 173329 cpm
  Incorporation of 14C-acetate: Triglycerides: 105097 cpm
HepG2; 1 μM, read-out: Incorporation of 14C-acetate: Cholesterol, percent referred to physiological solution
  inhibition at 1 µM: 55%
HepG2; 1 μM, read-out: Incorporation of 14C-acetate: Esters of Cholesterol, percent referred to physiological solution
  inhibition at 1 µM: 54%
HepG2; 1 μM, read-out: Incorporation of 14C-acetate: Fatty acids, percent referred to physiological solution
  inhibition at 1 µM: 36%
HepG2; 1 μM, read-out: Incorporation of 14C-acetate: Phospholipids, percent referred to physiological solution
  inhibition at 1 µM: 31%
HepG2; 1 μM, read-out: Incorporation of 14C-acetate: Triglycerides, percent referred to physiological solution
  inhibition at 1 µM: 8%
HepG2; 10 μM, read-out: Incorporation of 14C-acetate: Cholesterol, percent referred to physiological solution
  inhibition at 10 µM: 64%
HepG2; 10 μM, read-out: Incorporation of 14C-acetate: Esters of Cholesterol, percent referred to physiological solution
  inhibition at 10 µM: 35%
HepG2; 10 μM, read-out: Incorporation of 14C-acetate: Fatty acids, percent referred to physiological solution
  inhibition at 10 µM: 42%
HepG2; 10 μM, read-out: Incorporation of 14C-acetate: Phospholipids, percent referred to physiological solution
  inhibition at 10 µM: 31%
HepG2; 10 μM, read-out: Incorporation of 14C-acetate: Triglycerides, percent referred to physiological solution
  inhibition at 10 µM: 3%
HepG2; summary of Table 4
  activity as regards the synthesis of the esters of the cholesterol: 35-45%
B-100 apolipoprotein; 0 minutes
  Area of the B-100 apolipoprotein peak: 2.7 AU/mm
B-100 apolipoprotein; 60 minutes
  Area of the B-100 apolipoprotein peak: 1.8 AU/mm
B-100 apolipoprotein; 90 minutes
  Area of the B-100 apolipoprotein peak: 1.6 AU/mm
B-100 apolipoprotein; 120 minutes
  Area of the B-100 apolipoprotein peak: 0.9 AU/mm
B-100 apolipoprotein; 150 minutes
  Area of the B-100 apolipoprotein peak: 0.9 AU/mm
B-100 apolipoprotein; 180 minutes
  Area of the B-100 apolipoprotein peak: 0.6 AU/mm
B-100 apolipoprotein; 360 minutes
  Area of the B-100 apolipoprotein peak: 0.3 AU/mm
LDL
  atherogenic potentialities of the LDL: remarkably lowered
